Test results reported in patent publication US9802899B2, “Heterocyclic compounds as pesticides” (BAYER CROPSCIENCE AG, priority 2012, dated 2017).

Columns and labels:
Cooperia curticei = Cooperia curticei test (COOPCU); assay type: in vivo; settings: nematode larvae, after 5 days
Method: Cooperia curticei Test (COOPCU)
Solvent: dimethyl sulphoxide
To produce a suitable preparation of active compound, 10 mg of active compound are mixed with 0.5 ml of dimethyl sulphoxide, and the concentrate is diluted with Ringer solution to the desired concentration.
Vessels containing the active compound preparation of the desired concentration are populated with about 40 nematode larvae (Cooperia curticei).
After 5 days, the kill in % is determined 100% means that all of the larvae have been killed; 0% means that none of the larvae have been killed.

[1] = Determination of the log P values by HPLC (formic acid method); assay type: physicochemical; settings: reversed-phase column (C 18), acidic range (pH 3.4), 55° C.; for chromatographic logP: reversed-phase HPLC column (C 18)
Method: 1) Description of Method for Determination of the Log P Values (Formic Acid Method)
Eluents for determination in the acidic range (pH 3.4):
Eluent A: acetonitrile+1 ml of formic acid/liter. Eluent B: water+0.9 ml of formic acid/liter.
The lambda max values were determined in the maxima of the chromatographic signals using the UV spectra from 200 nm to 400 nm.

Phaedon cochleariae = Phaedon cochleariae spray test (PHAECO); assay type: in vivo; settings: foliar, 168 h, application rate 500 g/ha, larvae on Chinese cabbage leaf discs, after 7 days, read-out: efficacy
Method: Phaedon cochleariae Spray Test (PHAECO)
Solvents: 78.0 parts by weight of acetone • • 1.5 parts by weight of dimethylformamide
Emulsifier: 0.5 part by weight of alkylaryl polyglycol ether
To produce a suitable preparation of active compound, 1 part by weight of active compound is mixed with the stated amounts of solvents and emulsifier, and the concentrate is diluted with emulsifier-containing water to the desired concentration.
After 7 days, the efficacy in % is determined. 100% means that all of the beetle larvae have been killed; 0% means that none of the beetle larvae have been killed.

O=C(Nc1ccn(-c2ccc(F)cc2F)n1)c1ccccc1Cl [Compound I-1-211]
efficacy (kill) (Cooperia curticei; application rate 100 ppm): 80% | log P [1]: 2.91

CN(C(=O)c1ccccc1Cl)c1ccn(-c2ccccc2Cl)n1 [Compound I-1-21, 2-Chloro-N-[1-(2-chlorophenyl)-1H-pyrazol-3-yl]-N-methylbenzamide]
pest or weed control at 500 g/ha (Phaedon cochleariae): 100% | chromatographic logP [1]: 3.14

O=C(Nc1nn(-c2ccccc2Cl)cc1Br)c1ccccc1C(F)(F)F [Compound I-1-16, N-[4-Bromo-1-(2-chlorophenyl)-1H-pyrazol-3-yl]-2-(trifluoromethyl)benzamide]
pest or weed control at 500 g/ha (Phaedon cochleariae): 83% | chromatographic logP [1]: 3.11

O=C(Nc1ccn(-c2c(Cl)cccc2Cl)n1)c1ccccc1Cl [Compound I-1-121]
efficacy (kill) (Cooperia curticei; application rate 100 ppm): 80% | log P [1]: 2.84

O=C(Nc1ccn(-c2c(F)cccc2F)n1)c1sccc1C(F)(F)F [Compound I-1-284]
efficacy (kill) (Cooperia curticei; application rate 4 ppm): 80% | log P [1]: 2.82

CCN(C(=O)c1ccccc1Cl)c1ccn(-c2ccccc2Cl)n1 [Compound I-1-22]
efficacy (kill) (Cooperia curticei; application rate 100 ppm): 80% | log P [1]: 3.41

O=C(Nc1cnn(-c2ccccc2Br)n1)c1ccccc1Cl [Compound I-2-7]
efficacy (kill) (Cooperia curticei; application rate 4 ppm): 80% | log P [1]: 2.93

O=C(Nc1ccn(-c2c(Cl)cccc2Cl)n1)c1ccccc1I [Compound I-1-123, N-[1-(2,6-Dichlorophenyl)-1H-pyrazol-3-yl]-2-iodobenzamide]
pest or weed control at 500 g/ha (Phaedon cochleariae): 100% | chromatographic logP [1]: 3.04

O=C(Nc1nn(-c2ccccc2Cl)cc1Cl)c1ccccc1C(F)(F)F [Compound I-1-15, N-[4-Chloro-1-(2-chlorophenyl)-1H-pyrazol-3-yl]-2-(trifluoromethyl)benzamide]
pest or weed control at 500 g/ha (Phaedon cochleariae): 100% | chromatographic logP [1]: 3.06

O=C(Nc1ccn(-c2cccc(Cl)c2F)n1)c1ccccc1C(F)(F)F [Compound I-1-555]
efficacy (kill) (Cooperia curticei; application rate 4 ppm): 90% | log P [1]: 3.37

O=C(Nc1ccn(-c2cnc(Cl)cn2)n1)c1cccnc1C(F)(F)F [Compound I-1-386]
log P [1]: 2.45

Cc1cnoc1C(=O)Nc1ccn(-c2ncc(F)cc2F)n1 [Compound I-1-543]
log P [1]: 2.00

N#Cc1c(F)cccc1-n1ccc(NC(=O)c2ccccc2Cl)n1 [Compound I-1-621]
log P [1]: 2.57

O=C(c1ccccc1C(F)(F)F)N(C(=O)c1ccccc1C(F)(F)F)c1nn(-c2ccccc2Cl)nc1Cl [Compound I-2-20]
log P [1]: 4.87

Cn1nc(C(F)(F)C(F)(F)F)c(C#N)c1C(=O)Nc1ccn(-c2ncc(F)cc2F)n1 [Compound I-1-535]
log P [1]: 3.19

Cc1ccccc1C(=O)Nc1ccn(-c2c(F)cccc2F)n1 [Compound I-1-73]
log P [1]: 2.60

Nc1nn(-c2ccccc2Cl)cc1Br [4-Bromo-1-(2-chlorophenyl)-1H-pyrazole-3-amine]
chromatographic logP [1]: 2.23

O=C(NC1=NN(c2c(F)cccc2F)CC1)c1c(F)cccc1F [Compound I-4-3]
log P [1]: 2.59

Cn1nc(C(F)(F)F)c(C(=O)Nc2ccn(-c3c(F)cccc3F)n2)c1F [Compound I-1-112]
log P [1]: 2.53

Cc1cccnc1C(=O)Nc1ccn(-c2ccccc2Cl)n1 [Compound I-1-38]
log P [1]: 3.24

O=C(Nc1ccn(-c2c(F)cccc2F)n1)c1ccccc1SC(F)(F)F [Compound I-1-88]
log P [1]: 3.15

O=C(Nc1ccn(-c2cc(F)c(F)cc2F)n1)c1cccnc1C(F)(F)F [Compound I-1-192]
log P [1]: 3.42

CC1=C(C(=O)Nc2ccn(-c3ncc(F)cc3F)n2)OCCO1 [Compound I-1-639]
log P [1]: 2.16

O=C(Nc1nn(-c2ccccc2Br)nc1Cl)c1ccccc1I [Compound I-2-32]
log P [1]: 3.24

Nc1cnn(-c2ccc(C(F)(F)F)cn2)n1 [2-[5-(Trifluoromethyl)pyridin-2-yl]-2H-1,2,3-triazole-4-amine]
chromatographic logP [1]: 1.53

O=C(Nc1cnn(-c2c(F)cccc2F)n1)c1ccccc1Br [Compound I-2-36]
log P [1]: 2.71

Nc1cnn(-c2ncccc2F)n1 [2-(3-Fluoropyridin-2-yl)-2H-1,2,3-triazole-4-amine]
chromatographic logP [1]: 0.4

O=C(Nc1ccn(-c2nccnc2F)n1)c1ccccc1Cl [Compound I-1-174, 2-Chloro-N-[1-(3-fluoropyrazin-2-yl)-1H-pyrazol-3-yl]benzamide]
chromatographic logP [1]: 2.03

Cc1nn(C)c(C(=O)Nc2ccn(-c3c(F)cccc3F)n2)c1[N+](=O)[O-] [Compound I-1-233]
log P [1]: 2.23

CC(C)c1nn(C)c(C(=O)Nc2ccn(-c3ncc(F)cc3F)n2)c1[N+](=O)[O-] [Compound I-1-509]
log P [1]: 2.72

CC1=C(C(=O)Nc2ccn(-c3c(F)cccc3F)n2)SCCO1 [Compound I-1-101]
log P [1]: 2.41

O=C(Nc1nn(-c2ccccc2Br)nc1Cl)c1cccnc1Cl [Compound I-2-31]
log P [1]: 2.46

O=C(Nc1ccn(-c2c(F)cccc2F)n1)c1c(C(F)(F)F)cc(F)c(F)c1F [Compound I-1-296]
log P [1]: 3.14

Cn1nc(C(F)(F)F)c(C(=O)Nc2ccn(-c3c(F)cccc3F)n2)c1C(F)(F)F [Compound I-1-238]
log P [1]: 2.99

O=C(Nc1ccn(-c2cccc(Cl)c2F)n1)c1ccccc1Cl [Compound I-1-559]
log P [1]: 3.30

Cc1nn(C)c(C(=O)Nc2ccn(-c3ncc(F)cc3F)n2)c1C(F)F [Compound I-1-514]
log P [1]: 2.13

Cn1cc(Br)c(C(=O)Nc2ccn(-c3ncc(F)cc3F)n2)n1 [Compound I-1-520]
log P [1]: 2.15

O=C(Nc1cnn(-c2ccccc2Br)n1)c1ccccc1C(F)(F)F [Compound I-2-6]
log P [1]: 3.03

CCN(CC)c1ccc(C#N)c(-n2ccc(NC(=O)c3ccccc3C(F)(F)F)n2)n1 [Compound I-1-568, N-{1-[3-Cyano-6-(diethylamino)pyridin-2-yl]-1H-pyrazol-3-yl}-2-(trifluoromethyl)benzamide]
chromatographic logP [1]: 3.76

Cc1nn(-c2ccccc2Cl)nc1N(C(=O)c1ccccc1I)C(=O)c1ccccc1I [Compound I-2-25]
log P [1]: 4.68

N#Cc1cc(F)c(-n2ccc(NC(=O)c3ccccc3C(F)(F)F)n2)nc1Cl [Compound I-1-606, N-[1-(6-Chloro-5-cyano-3-fluoropyridin-2-yl)-1H-pyrazol-3-yl]-2-(trifluoromethyl)benzamide]
chromatographic logP [1]: 2.94

CCOc1c(Cl)cccc1-n1ccc(NC(=O)c2cccnc2C(F)(F)F)n1 [Compound I-1-395]
log P [1]: 3.21

O=C(Nc1ccn(-c2ncccc2Cl)n1)c1cccnc1Br [Compound I-1-565]
log P [1]: 1.68

Cc1cn(-c2ccccc2Cl)nc1NC(=O)c1c(F)cccc1F [Compound I-1-352]
log P [1]: 2.70

CC(=O)N(C(=O)c1ccccc1C(F)(F)F)c1ccn(-c2ncc(F)cc2F)n1 [Compound I-1-142]
log P [1]: 2.97

Nc1ccn(-c2cccc(Cl)c2Cl)n1 [1-(2,3-Dichlorophenyl)-1H-pyrazole-3-amine]
chromatographic logP [1]: 1.97

Cn1ccc([N+](=O)[O-])c1C(=O)Nc1ccn(-c2ncc(F)cc2F)n1 [Compound I-1-452]
log P [1]: 2.27

Cn1ncnc1C(=O)Nc1ccn(-c2ncc(F)cc2F)n1 [Compound I-1-449]
log P [1]: 1.67
